Measurements: US9006454B2, “Dihydroorotate dehydrogenase inhibitors” (Merck Serono S.A., priority 2009, dated 2015)

Legend:
[1] = molecular target: DHODH (Homo sapiens (Human), UniProt Q02127); assay: DHODH activity assay (coupled enzyme assay, DCIP reduction, absorbance at 610 nm); type: biochemical; settings: for inhibition at 10 µM: compound at 10 uM, read-out: inh @ 10 uM hDHODH (%)
Method: The DHODH activity assay is a coupled enzyme assay in which oxidation of DHO and subsequent reduction of ubiquinone are stoichiometrically equivalent to the reduction of DCIP ([…]). The reduction of DCIP is accompanied by a loss of absorbance at 610 nm.
Buffer Preparation: 50 mM tris HCl, 150 mM KCl, and pH 8.0, 0.8% triton.
5 μL of Dimethyl sulfoxide or a compound of formula I in DMSO solution was added to the wells of a 96 well plate. Compounds of formula I were measured at 10 μM.
Protein along with buffer was added, so that the total volume including the DMSO was 87 μL. Compound and protein were incubated for half an hour at room temperature after mixing. 5 μL of 20 mM solution of L-Dihydroorotic acid, 5 μL of 2 mM solution of Decylubiquinone and 3 μL of 2 mM solution of 2,6-Dichloroindophenol sodium salt hydrate were added to the above solution (total assay volume 100 μL). The mixture was stirred for 2 min and absorbance was recorded at every 10 min at 610 nanometers.
Percent Inhibition is Calculated as Follows
Positive control contains DMSO, buffer, enzyme and substrates
No Enzyme reaction contains DMSO, buffer and substrates
IC50 determination: • A 2 mM DMSO stock of the compound of formula I to be examined was prepared. ⅓rd dilutions were made as follows:
5 μL of each stock of compound of formula I (solution indicated in column 4 of table) was used for each 100 μL assay. Therefore, 5 μL of the 2 mM stock provided 100 μL of 100 μM solution of compound of formula I, when made up with buffer, protein and substrate. See also: Ulrich et al. (2001) Eur. J. Biochem. 268, 1861-1868.

[2] = system: Jurkat cells; assay: Measurement of cell proliferation (Jurkat cell), XTT assay; type: cell-based; settings: Homo sapiens, Jurkat; for inhibition at 1 µM: compound at 1 uM, read-out: % inh Jurkat_cells @ 1 uM (%); for EC50: 72 h, XTT cell viability
Method: See also Roehm, N et al [1991] An improved colorimetric assay for cell proliferation and viability utilizing the tetrazolium salt XTT. J. Immunol. Methods 142:257-265.
Culture Jurkat cells in T-25 flasks at a density of 0.2×10^6/ml 2-3 days before the day of experiment set up.
Centrifuge Jurkat T-cell suspension at 1200 rpm for 10 minutes and resuspend cells again in fresh RPMI medium with 10% FBS.
Count the cells and dilute suspension to a density of 2×10^6 cells/ml. Seed 50 μL of this suspension in each well of a 96 well plate (100,000 cells per well). Keep the edges of the plate empty to avoid evaporation.
Serially dilute DMSO stocks of compounds to get different concentrations for an EC50 curve. 50 μL of compound diluted in media (2× concentration required in well) is added to each well. DMSO concentration should be kept constant at 0.25-0.5% for all wells.
Typically, for all compounds with IC50<1 μM, compound concentration can start at 10 μM followed by half log dilutions for a total of 8-10 concentrations. Each concentration has to be tested in triplicate.
Include controls such as cells without compound (with same DMSO concentration as compound wells), and media control
Incubate the 96 well plate in a CO2 incubator at 37° C. for 72 hrs before determining cell viability using XTT assay
XTT assay: to each well, add 50 μL of 1 mg/ml XTT solution with 20 μl of PMS/mL. Read the plates after 2 hours at 465 nm using the spectrophotometer. XTT reading for media without cells is used as background reading.
Calculate % cell viability assuming that the cells without compound are 100% viable.
Plot % cell viability as a function of concentration and determine EC50 by using software such as Graph Pad Prism to fit the curve.

Chain of DHODH (Q02127 whole entry): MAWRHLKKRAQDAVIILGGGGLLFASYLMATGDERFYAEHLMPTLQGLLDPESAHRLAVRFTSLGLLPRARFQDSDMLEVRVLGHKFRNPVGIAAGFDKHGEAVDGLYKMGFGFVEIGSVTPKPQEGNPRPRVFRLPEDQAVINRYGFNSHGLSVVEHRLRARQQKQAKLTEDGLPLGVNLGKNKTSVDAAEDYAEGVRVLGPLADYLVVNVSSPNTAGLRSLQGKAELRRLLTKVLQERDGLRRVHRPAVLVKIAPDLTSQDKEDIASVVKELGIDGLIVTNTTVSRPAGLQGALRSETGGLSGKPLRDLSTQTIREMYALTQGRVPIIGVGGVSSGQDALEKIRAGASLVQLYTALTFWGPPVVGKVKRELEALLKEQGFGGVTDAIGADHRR

| IC50 [1] | inhibition at 10 µM [1] | EC50 [2] | SMILES | inhibition at 1 µM [2] |
| --- | --- | --- | --- | --- |
| 2240 nM | 65.1% |  | Cc1cc(C(=O)O)c2nc(-c3ccc(-c4ccc(Oc5ccccc5C(=O)O)cc4)cc3)[nH]c2c1 [I137] | 31% |
| 949 nM | 92.2% |  | O=C(O)c1cc(Cl)cc2[nH]c(-c3ccc(-c4ccccc4F)cc3)nc12 [I45] | 49.5% |
| 21 nM | 96.4% | 13 nM | Cc1cc(C(=O)O)c2nc(-c3c(F)c(F)c(-c4cc(F)cc(F)c4)c(F)c3F)[nH]c2c1 [I146] | 89.9% |
| 1260 nM | 89% |  | O=C(O)c1cccc2[nH]c(-c3ccc(-c4cccc(OC(F)(F)F)c4)cc3)nc12 [I18] | 43.1% |
| 3020 nM | 74.1% |  | Cc1cc(C(=O)O)c2nc(-c3ccc(-c4ccc(OCCCN5CCOCC5)cc4)cc3)[nH]c2c1 [I87] | 35.7% |
|  | 82% |  | O=C(O)c1cc(F)cc2nc(-c3ccc(-c4ccc(F)cc4F)cc3F)[nH]c12 [I34] | 41.8% |
|  | 12.5% |  | CC(=O)c1cccc2[nH]c(-c3ccc(-c4ccccc4)cc3)nc12 [I69, 1-(2-Biphenyl-4-yl-1H-benzoimidazol-4-yl)-ethanone] | 9.2% |
| 78 nM | 89.7% |  | Cc1cc(C(=O)O)c2c(c1)nc(-c1c(F)c(F)c(-c3ccc(O)cc3)c(F)c1F)n2CCO [I94] | 82.5% |
| 314 nM | 95.6% |  | Cc1cc(C(=O)O)c2nc(-c3c(F)c(F)c(-c4ccc(F)c(F)c4)c(F)c3F)[nH]c2c1 [I145] | 75.8% |
|  | 47.5% |  | O=C(O)c1cccc2[nH]c(-c3ccc(-c4ccc(OCc5ccccc5)cc4)cc3)nc12 [I190] | 16.5% |
|  | 49.1% |  | Cc1cc(C(=O)O)c2[nH]c(-c3ccc(-c4ccc(OCCN5CCCCC5)cc4)cc3)nc2c1 [I154] | 8.7% |
|  | 71.3% |  | Cc1cc(C(=O)NC(C)C)c2[nH]c(-c3c(F)c(F)c(-c4ccccc4)c(F)c3F)nc2c1 [I162] | 28.5% |
| 2140 nM | 80% |  | Cc1cc(C(=O)O)c2c(c1)nc(-c1ccc(-c3ccc(O)cc3)cc1)n2CCO [I97] | 37.6% |
|  | 58.5% |  | Cc1cc(C(=O)O)c2[nH]c(-c3ccc(Oc4ccc(C#N)cc4)cc3)nc2c1 [I78, 2-[4-(4-Cyano-phenoxy)-phenyl]-6-methyl-3H-benzoimidazole-4-carboxylic acid] | 22.2% |
|  | 85% |  | O=C(O)c1cccc2[nH]c(-c3ccc(-c4ccccc4O)cc3)nc12 [I168] | 34% |
|  | 93.4% |  | O=C(O)c1cc(F)cc2nc(-c3ccc(-c4ccccc4)cc3F)[nH]c12 [Example 29, 6-Fluoro-2-(3-fluoro-biphenyl-4-yl)-3H-benzoimidazole-4-carboxylic acid] | 71.6% |
|  | 17.9% |  | O=C(O)c1cccc2[nH]c(-c3ccc(N4CCCCCC4=O)cc3)nc12 [I81, 2-[4-(2-Oxo-azepan-1-yl)-phenyl]-1H-benzoimidazole-4-carboxylic acid] | 6.7% |
| 209 nM | 73.1% |  | O=C(O)c1cccc2[nH]c(-c3c(F)c(F)c(-c4cccc(F)c4F)c(F)c3F)nc12 [I128] | 64.9% |
| 1200 nM | 88% |  | Cc1cc(C(=O)O)c2nc(-c3ccc(-c4cccc(OCc5ccccc5)c4)cc3)[nH]c2c1 [I115] | 52% |
|  | 45% |  | COC(=O)c1cc(C)cc2[nH]c(-c3c(F)c(F)c(-c4ccccc4)c(F)c3F)nc12 [I176] | 7% |
| 6640 nM | 59.7% |  | Cc1cc(C(=O)O)c2nc(-c3ccc(-c4ccc(C(=O)NC5CCNCC5)cc4)cc3)[nH]c2c1 [I92] | 16.3% |

| IC50 [1] | inhibition at 10 µM [1] | EC50 [2] | SMILES | inhibition at 1 µM [2] |
| --- | --- | --- | --- | --- |
|  | 40.3% |  | Cc1cc(C(=O)O)c2nc(-c3ccc(-c4nc5ccccc5s4)cc3)[nH]c2c1 [I47] | 17.3% |
| 3690 nM | 78.8% |  | Cc1cc(C(=O)O)c2nc(-c3ccc(-c4ccc(NC(=O)C5CCNCC5)cc4)cc3)[nH]c2c1 [I90] | 44.5% |
| 6.8 nM | 103% | 18 nM | Cc1cc(C(=O)O)c2nc(-c3c(F)c(F)c(-c4ccccc4)c(F)c3F)[nH]c2c1 [I41] | 103% |
| 16 nM | 98.4% |  | Cc1cc(C(=O)O)c2[nH]c(-c3c(F)c(F)c(-c4ccc(O)cc4)c(F)c3F)nc2c1 [I96] | 102% |
| 3820 nM | 82.4% |  | Cc1cc(C(=O)O)c2[nH]c(-c3ccc(-c4ccccc4)nc3)nc2c1 [I75, 6-Methyl-2-(6-phenyl-pyridin-3-yl)-3H-benzoimidazole-4-carboxylic acid] | 39.3% |
| 3100 nM | 71% |  | Cc1cc(C(=O)O)c2[nH]c(-c3ccc(-c4ccc(OCCO)cc4)cc3)nc2c1 [I99] | 27.7% |
| 60 nM | 104% |  | Cc1cc(C(=O)O)c2[nH]c(-c3c(F)c(F)c(-c4ccccc4OCc4ccccc4)c(F)c3F)nc2c1 [I100] | 96.2% |
| 437 nM | 99.7% |  | O=C(O)c1cc(F)cc2[nH]c(-c3ccc(-c4cccnc4)cc3)nc12 [I58] | 69.8% |
|  | 19.9% |  | O=C(O)c1cccc2nc(-c3cccc4ccccc34)[nH]c12 [I39] | 12.3% |
| 862 nM | 78% |  | Cc1cc(C(=O)O)c2nc(-c3ccc(-c4cccc(O)c4)cc3)[nH]c2c1 [I116] | 59% |
|  | 13.7% |  | O=C(O)c1cc(F)cc2nc(-c3ccc4cc[nH]c4c3)[nH]c12 [I37] | 6.9% |
| 1230 nM | 87% |  | Cc1cc(C(=O)O)c2nc(-c3ccc(-c4ccc(OCc5ccccc5)cc4)cc3)[nH]c2c1 [I143] | 42.2% |
| 994 nM | 92.9% | 746 nM | O=C(O)c1cc(Cl)cc2nc(-c3ccc(-c4ccccc4)cc3)[nH]c12 [I35] | 56.4% |
| 2230 nM | 88.1% |  | Cc1cc(C(=O)O)c2nc(-c3ccc(-c4ccc(OCc5ccccn5)cc4)cc3)[nH]c2c1 [I119] | 40.3% |
|  | 57.7% |  | O=C(O)c1cccc2[nH]c(-c3ccc(-c4ccc(OCc5ccccn5)cc4)cc3)nc12 [I182] | 26.9% |
| 1650 nM | 87% |  | Cc1cc(C#N)c2nc(-c3c(F)c(F)c(-c4ccccc4)c(F)c3F)[nH]c2c1 [I109] | 49% |
| 403 nM | 96.3% | 206 nM | Cc1cc(C(=O)O)c2[nH]c(-c3ccc(-c4ccccc4)cc3F)nc2c1 [I28] | 75.4% |
| 446 nM | 87.9% |  | Cc1cc(C(N)=O)c2nc(-c3c(F)c(F)c(-c4ccccc4)c(F)c3F)[nH]c2c1 [I102] | 64.2% |
| 50 nM | 105% |  | Cc1cc(C(=O)O)c2nc(-c3c(F)c(F)c(-c4ccsc4)c(F)c3F)[nH]c2c1 [I139] | 94.9% |
| 3.5 nM | 100% | 33 nM | Cc1cc(C(=O)O)c2nc(-c3c(F)c(F)c(-c4ccccc4F)c(F)c3F)[nH]c2c1 [I140] | 101% |
|  | 94.1% |  | Cc1cc(C(=O)O)c2nc(-c3ccc(-c4ccc(NC(=O)[C@@H]5CCCN5)cc4)cc3)[nH]c2c1 [I89] | 52% |
